Experimental data: PMC9260854 (Biochemistry, 2022)
Residue numbers refer to the chain shown, from its start.

How the values were obtained:
[1] = molecular target: T1, native non-tagged SULT2B1b (Homo sapiens, UniProt O00204); assay: Initial-rate 1-HP sulfonation inhibition, native; type: biochemical; conditions: native enzyme
T1 sequence (O00204 1-365): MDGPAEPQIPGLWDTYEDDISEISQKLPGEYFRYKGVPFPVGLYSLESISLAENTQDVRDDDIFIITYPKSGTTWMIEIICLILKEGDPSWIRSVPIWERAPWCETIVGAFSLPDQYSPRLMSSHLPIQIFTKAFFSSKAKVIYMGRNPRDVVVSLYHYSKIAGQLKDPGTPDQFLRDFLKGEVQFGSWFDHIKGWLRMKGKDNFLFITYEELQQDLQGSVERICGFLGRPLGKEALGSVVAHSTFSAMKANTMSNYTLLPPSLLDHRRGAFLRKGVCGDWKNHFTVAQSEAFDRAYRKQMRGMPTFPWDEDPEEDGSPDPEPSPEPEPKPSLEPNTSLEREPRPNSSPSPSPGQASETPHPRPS

[2] = molecular target: T2, SULT2B1b C81S, C225S, C278S, S347D (Homo sapiens, UniProt O00204, C225S/C278S/C81S/S347D); assay: Initial-rate parameters, non DTNB-reactive scaffold; type: biochemical
T2 sequence (O00204 1-365 C81S/C225S/C278S/S347D): T1 sequence (O00204 1-365) with C81S, C225S, C278S, S347D

[3] = molecular target: T3, SULT2B1b S347D spin-labeled at residue 247 (Homo sapiens, UniProt O00204, C225S/C278S/C81S/S247C/S347D); assay: Initial-rate parameters, spin-labeled mutant 247; type: biochemical
T3 sequence (O00204 1-365 C81S/C225S/S247C/C278S/S347D): T1 sequence (O00204 1-365) with C81S, C225S, S247C, C278S, S347D

[4] = molecular target: T4, SULT2B1b, S347D, W98A (Homo sapiens, UniProt O00204, S347D/W98A); assay: Initial-rate parameters, direct-contact mutant W98A
T4 sequence (O00204 1-365 W98A/S347D): T1 sequence (O00204 1-365) with W98A, S347D

[5] = molecular target: T5, SULT2B1b, S347D, Y257A (Homo sapiens, UniProt O00204, S347D/Y257A); assay: Initial-rate parameters, direct-contact mutant Y257A
T5 sequence (O00204 1-365 Y257A/S347D): T1 sequence (O00204 1-365) with Y257A, S347D

O=c1c(O)c(-c2ccc(O)c(O)c2)oc2cc(O)cc(O)c12 [quercetin]
α WT (quercetin) [1]: 0.08 ± 0.01
Ki [2]: 300 nM
Ki [3]: 320 nM
Ki [4]: 5300 nM
Ki [5]: 1600 nM
